Data: paper PMC7272617 (Scientific Reports, 2020)
Converted amounts (≈) assume the structure as drawn. Where a SMILES comes first, the peptide text is derived from it.

Key:
[1] = tested on: MDR P. aeruginosa clinical isolate No.3; conditions: MDR clinical isolate No.3, 24 h
[2] = tested on: Staphylococcus epidermidis ATCC 12228; conditions: ATCC 12228, 24 h
[3] = tested on: all Gram-positive strains; test: Mean MIC and therapeutic index, Gram-positive strains; type: cell-based; conditions: 5 Gram-positive strains of Table 3
[4] = tested on: MDR P. aeruginosa clinical isolate No.8; conditions: MDR clinical isolate No.8, 24 h
[5] = tested on: Salmonella Typhimurium ATCC 13311; conditions: ATCC 13311, 24 h
[6] = tested on: Acinetobacter baumannii MT strain; conditions: MT strain, 24 h
[7] = tested on: all Gram-negative strains; test: Mean MIC and therapeutic index, Gram-negative strains; type: cell-based; conditions: 7 Gram-negative strains of Table 3

Structure (SMILES): CC[C@H](C)[C@H](NC(=O)[C@H](CCCNC(=N)N)NC(=O)[C@H](CCCCN)NC(=O)[C@H](C)NC(=O)[C@@H](NC(=O)[C@@H](N)CCCCN)[C@@H](C)CC)C(=O)N[C@@H](Cc1c[nH]c2ccccc12)C(=O)N[C@@H](CCCCN)C(=O)N[C@H](C(=O)N[C@@H](CC(C)C)C(=O)N[C@@H](CCCNC(=N)N)C(=O)N[C@@H](CCCNC(=N)N)C(=O)N[C@@H](CCCNC(=N)N)C(N)=O)[C@@H](C)CC [PA-13] (H-KIAKRIWKILRRR-NH2; N-terminus assumed)
- MIC [1]: 7.81 µg/mL (≈ 4.5 µM)
- MIC [2]: 3.91 µg/mL (≈ 2.25 µM)
- GM (Gr.+ strains): geometric mean of MIC values from all Gram-positive strains [3]: 67.19 µg/mL
- MIC [4]: 7.81 µg/mL (≈ 4.5 µM)
- MIC [5]: 1.95 µg/mL (≈ 1.12 µM)
- MIC [6]: 7.81 µg/mL (≈ 4.5 µM)
- GM (Gr.− strains): geometric mean of MIC values from all Gram-negative strains [7]: 15.90 µg/mL
